Key:
[1] = system: HEK293 empty vector cell line; assay: Transwell cell migration assay; type: cell-based; conditions: 16 h, empty vector cells
Method: (§1) To study if procyanidin C2 is able to inhibit PRL-1 and PRL-3 in cells, HEK293 cells were treated in a wound-healing assay (see the experimental procedures). […] As a control the empty vector cell line was again utilized. […] The migration speed was for all cell lines similar when treated with 50 μM of 9. To further corroborate these findings we performed additionally a transwell assay as an alternative way to study cell migration.
(§2) Fig 6 Wound healing abilities of PRL-1 or PRL-3 overexpressing or empty vector control HEK293 cell lines were analyzed in the presence of compound 9 or medium only. Cells were seeded at a concentration of 800,000 cells per insert and procyanidin C2 (9) was added at a concentration of 25 and 50 μM. A) Pictures of the wound gaps were taken at 0 h and 7 h for both conditions (with and without treatment). B) Quantification of the wound healing experiment. Speed of migration is shown for combined data from different replicates, as mean ± SD (n = 38–88). Two-sided t-tests with Welsh correction were performed for p < 0.05. ns = not significant;***: < 0.001; **: < 0.01; *: < 0.05. C) Effect of polyphenolic compounds in a transwell assay on the cell migration of HEK293 empty vector and PRL-3 overexpressing cell lines. Cells were seeded at a concentration of 100,000 cells per insert and procyanidin C2 (9) was added at a final concentration of 25 and 50 μM. Migration was allowed for 16 h before harvesting and staining with calcein AM for fluorescent readout. Mean ± SD (n = 60–72) is shown for combined data from different replicates. Two-sided t-tests with Welsh correction were performed for p < 0.05. ns = not significant. D) Quantification of wound healing experiment including blocking PRL-1 and PRL-3 with analog 3. Speed of migration is shown for combined data from different replicates, as mean ± SD (n = 63–82). Two-sided t-tests with Welsh correction were performed for p < 0.05.
(§3) HEK293 empty vector, PRL-1 and PRL-3 overexpressing cells were kept in selection medium (DMEM medium without Phenol red, supplemented with 10% FBS, 1% glutamine and 0.2% hygromycin and blasticidin) for one week until full confluency. Then, 0.1% tetracycline (1 mg/ml stock solution in ethanol) was added for induction of PRL-1 and PRL-3 expression in HEK293 PRL-1 and HEK PRL-3 wt 24 h prior plating on transwell inserts. For comparison, HEK293 empty vector was also treated with tetracycline. After 24 h, the medium was removed, cells were washed with PBS and starvation medium supplemented with 0.1% tetracycline was added. […] Then, 3x100 μL were taken from each well and transferred to a black assay plates and the relative concentration of the fluorescent product formed in the cells was determined by following the emission at 520 nm with excitation at 452 nm. […]

[2] = system: PRL-3 overexpressing HEK293 cell line; assay: Transwell cell migration assay; type: cell-based; conditions: 16 h, PRL-3 overexpressing cells
Method: as §1, §2, §3

For `Oc1cc(O)c2c(c1)O[C@H](c1ccc(O)c(O)c1)[C@@H](O)[C@@H]2c1c(O)cc(O)c2c1O[C@H](c1ccc(O)c(O)c1)[C@@H](O)[C@@H]2c1c(O)cc(O)c2c1O[C@H](c1ccc(O)c(O)c1)[C@@H](O)C2` [Procyanidin C2 (9), Procyanidin C2], the “cell migration, transwell” value ([1]; 25 μM) was “did not lead to a significant change in cell migration”, the “cell migration, transwell” value ([1]; 50 μM) was “significant increase in cell migration” and the “cell migration, transwell” value ([2]; 25 μM) was “did not lead to a significant change in cell migration”. The “cell migration, transwell” value ([2]; 50 μM) was “significant decrease in migration”.

Source: article PMC4520450, “Procyanidins Negatively Affect the Activity of the Phosphatases of Regenerating Liver” (PLoS ONE, 2015)
